According to patent publication US20180243421A1, “IMMUNOSTIMULATING AGENT” (AJINOMOTO CO., INC., priority 2015, published 2018):

Tests used:
[1] = tested on: anti-OVA-specific IgG1 subclass antibody; assay: Adjuvant activity: anti-OVA-specific IgG1 subclass antibody in serum after secondary immunization (Examples 1, 5, 7, 8; ELISA absorbance); assay type: in vivo, BALB/c mice
Procedure: Two weeks from the secondary immunization, the whole blood was extracted under anesthesia, and the obtained serum sample was measured for anti-OVA-specific IgG1 subclass antibody.
A method for measurement of the anti-OVA-specific IgG1 subclass antibody in Example 1, and the following Examples 5, 7 and 8 is as follows.
Measurement Method of anti-OVA-specific IgG1 Subclass Antibody
To a 96 well plate was added 5 μg/ml OVA at 100 μl/well, and the mixture was incubated at 4° C. overnight. After incubation, the mixture was washed three times with 200 μl of PBS-T (PBS+0.05%(v/v) Tween 20) per well, and blocked with 100 μl of 5% FCS/PBS solution per well at room temperature for 1 to 2 hr. Thereafter, the mixture was washed three times with PBS-T (200 μl/well), a diluted serum sample (100 μl/well) or the same amount of 5% FCS/PBS solution as a control was added, and the mixture was incubated at 37° C. for 1 hr. Thereafter, the mixture was washed five times with PBS-T (200 μl/well), a diluted biotinylated anti-mouse IgG1 antibody (100 μl/well) was added, and the mixture was incubated at 37° C. for 45 min. Thereafter, the mixture was washed five times with PBS-T (200 μl/well), a diluted anti-biotin-HRP antibody was added (100 μl/well), and the mixture was incubated at 37° C. for another 30 min. Thereafter, the mixture was washed five times with PBS-T (200 μl/well), TMB substrate solution was added (100 μl/well), and the mixture was incubated at room temperature for 10 to 15 min. Thereafter, a reaction quenching liquid (2N sulfuric acid solution) was added (50 μl/well) to discontinue a color developing reaction, and the absorbance (OD Value=450 nm) was measured by a microplate reader.

[2] = tested on: anti-OVA-specific IgE antibody; details: mouse, in vivo
Procedure: The serum sample obtained in Example 1 was measured for an anti-OVA-specific IgE antibody. The measurement method of the anti-OVA-specific IgE antibody in Example 3 and Examples 6, 9 is as follows.
Measurement Method of anti-OVA-specific IgE Antibody
DS mouse IgE ELISA (OVA) kit manufactured by DS Pharma Biomedical Co., Ltd. was used. The protocol is briefly shown below.
The serum sample and a standard reagent for drawing an analytical curve are diluted with a buffer and, after stirring, left standing at room temperature for 10 min. The sample and the standard solution are added to a plate bound with an IgE capture antibody in advance and, after stirring, the mixture is left standing at room temperature for 60 min. The mixture is washed three times with wash, HRP-labeled OVA is added, and the mixture is left standing at room temperature for 30 min. The mixture is washed three times with wash, a substrate solution is added, and the mixture is left standing in dark at room temperature for 30 min. A reaction quenching liquid is added, the mixture is stirred, and the absorbance (OD Value=450 nm) is immediately measured.
This test was performed in the same manner as in Example 3 except that N^2-hexadecanoyl-L-arginine (SZ61), N-hexadecanoylagmatine (SZ62), N^2-hexadecanoyl-L-arginine methyl ester hydrochloride (SZ63), N^2-octadecanoyl-L-glutamine tert-butyl ester (SZ64), and N^2-octadecanoyl-L-glutamine (SZ65) were used.
This test was performed in the same manner as in Example 6 except that N-hexadecanoylagmatine (SZ62), N^2-octadecanoyl-L-glutamine tert-butyl ester (SZ64), N-docosanoyl-L-leucine methyl ester (SZ70), and N-docosanoyl-L-phenylalanine methyl ester (SZ71) were used and a positive control adjuvant Addavax™ (InvivoGen) administration group was formed.
(§1) The allergy inducing activity test was performed in the same manner as in Example 3 except that Addavax™, N-(2-octadecyleicosanoyl)-L-leucine methyl ester (SZ86), N-hexadecanoyl-L-leucinamide (SZ90), N^2-hexadecanoyl-N^1,N^1-diethyl-L-leucinamide (SZ92), N^2-hexadecanoyl-L-arginine hexyl ester hydrochloride (SZ99) and N^2-docosanoyl-N^1,N^1-diethyl-L-glutamic acid 1-amide (SZ106) were used.
as §1, with “N-hexadecanoyl-L-leucine” for “N^2-hexadecanoyl-L-arginine”, “(SZ97),” for “hydrochloride (SZ99) and”, “(SZ106) and N-docosanoylagmatine hydrochloride (SZ108)” for “(SZ106)”
8-Week-old female BALB/c mice were divided into groups (N=6), and each group was primarily immunized by dorsal-subcutaneous administration of (1) ovalbumin (OVA) (5 μg) dissolved in saline as an antigen (OVA single administration group), (2) OVA (10 μg) and aluminum hydroxide salt dissolved in saline (Alum administration group), (3) OVA 10 μg and Addavax™ (mixed with saline at 1:1) dissolved in saline (Addavax™ administration group), (4) OVA 10 μg and CpG 5 μg dissolved in saline (CpG administration group), (5) OVA 10 μg and MPL 5 μg dissolved in saline (MPL administration group), (6) OVA (5 μg) and SZ62 (0.256 μmol) dissolved or dispersed in 5% αCD-added saline (SZ62 administration group), (7) OVA (5 μg), SZ62 (0.256 μmol) and CpG 5 μg dissolved or dispersed in 5% αCD-added saline (SZ62+CpG administration group), (8) OVA 10 μg, Addavax™ (mixed with saline at 1:1) and CpG 5 μg dissolved in saline (Addavax™+CpG administration group), (9) OVA (5 μg), SZ62 (0.256 μmol) and MPL 5 μg dissolved or dispersed in 5% αCD-added saline (SZ62+MPL administration group), (10) OVA (10 μg), aluminum hydroxide salt (Alum) and MPL 5 μg dissolved in saline (Alum+MPL administration group), each per mouse. One week later, the secondary immunization was carried out by dorsal-subcutaneous administration of solutions or dispersions similar to those of the above-mentioned (1) to (10) again.

[3] = Example 8, same manner as Example 7
[4] = Example 7, same manner as Example 1, plus Addavax group
[5] = Example 5, same manner as Example 1

| Compound | adjuvant activity (IgG1) compared with Alum ([1]; Example 8) | anti-OVA-specific IgG1 subclass antibody production as compared to the OVA single administration group [1, 3] | adjuvant activity (IgG1) compared with Alum ([1]; Example 7) | anti-OVA-specific IgG1 subclass antibody production as compared to the OVA single administration group [1, 4] | other results |
| --- | --- | --- | --- | --- | --- |
| CCCCCCCCCCCCCCCC(=O)N[C@@H](CCC(=O)O)C(=O)OC [SZ82, N-hexadecanoyl-L-glutamic acid 1-methyl ester] | equivalent to or not less than that of Alum | significantly increased | – | – | – |
| CCCCCCCCCCCCCCCCCCCCCC(=O)N[C@@H](CCC(=O)O)C(=O)OC [SZ72, N-docosanoyl-L-glutamic acid 1-methyl ester] | – | – | equivalent to or not less than that of Alum | significantly increased | – |
| CCCCCCCCCCCCCCCC(=O)N[C@@H](CCCNC(=N)N)C(=O)OC.Cl [SZ63, N^2-hexadecanoyl-L-arginine methyl ester hydrochloride] | equivalent to or not less than that of Alum | significantly increased | – | – | adjuvant activity (IgG1) compared with Alum ([1]; Example 5): equivalent to or not less than that of Alum; anti-OVA-specific IgG1 subclass antibody production as compared to the OVA single administration group [1, 5]: significantly increased; allergy inducing activity as compared to aluminum hydroxide gel adjuvant [2]: lower allergy inducing activity; anti-OVA-specific IgE antibody production as compared to the OVA single administration group [2]: a significant increase in the anti-OVA-specific IgE antibody production was not observed |
| CCCCCCCCCCCCCCCCCC(=O)N[C@@H](CCC(N)=O)C(=O)O [SZ65, N^2-octadecanoyl-L-glutamine] | – | – | – | – | adjuvant activity (IgG1) compared with Alum ([1]; Example 5): equivalent to or not less than that of Alum; anti-OVA-specific IgG1 subclass antibody production as compared to the OVA single administration group [1, 5]: significantly increased; allergy inducing activity as compared to aluminum hydroxide gel adjuvant [2]: lower allergy inducing activity; anti-OVA-specific IgE antibody production as compared to the OVA single administration group [2]: a significant increase in the anti-OVA-specific IgE antibody production was not observed |
| CCCCCCCCCCCCCCCCCCCCCC(=O)NCC(=O)OC [SZ69, N-docosanoyl glycine methyl ester] | – | – | equivalent to or not less than that of Alum | significantly increased | – |
| CCCCCCCCCCCCCCCCCCCCCC(=O)N[C@@H](Cc1ccccc1)C(=O)OC [SZ71, N-docosanoyl-L-phenylalanine methyl ester] | – | – | equivalent to or not less than that of Alum | a significant difference was not found | anti-OVA-specific IgG1 subclass antibody production compared with Alum ([1]; Example 7): equivalent to or not less than that of Alum; allergy inducing activity as compared to aluminum hydroxide gel adjuvant and Addavax [2]: lower allergy inducing activity |
| CCCCCCCCCCCCCCCC(=O)N[C@@H](CCCNC(=N)N)C(=O)O [SZ61, N^2-hexadecanoyl-L-arginine] | – | – | – | – | allergy inducing activity as compared to aluminum hydroxide gel adjuvant [2]: lower allergy inducing activity; anti-OVA-specific IgE antibody production as compared to the OVA single administration group [2]: a significant increase in the anti-OVA-specific IgE antibody production was not observed |
| CCCCCCCCCCCCCCCCCCCCCC(=O)N[C@H](C(=O)OC)[C@@H](C)CC [SZ76, N-docosanoyl-L-isoleucine methyl ester] | – | – | equivalent to or not less than that of Alum | significantly increased | – |
| CCCCCCCCCCCCCCCC(=O)NCC(=O)OC [SZ78, N-hexadecanoyl glycine methyl ester] | equivalent to or not less than that of Alum | a significant difference was not found | – | – | anti-OVA-specific IgG1 subclass antibody production compared with Alum ([1]; Example 8): equivalent to that of Alum |
| CCCCCCCCCCCCCCCC(=O)N[C@@H](CCCCN)C(=O)OC.O=C(O)C(F)(F)F [SZ81, N^2-hexadecanoyl-L-lysine methyl ester trifluoroacetic acid salt] | equivalent to or not less than that of Alum | a significant difference was not found | – | – | anti-OVA-specific IgG1 subclass antibody production compared with Alum ([1]; Example 8): equivalent to that of Alum |
| Alum [reference compound] | – | – | – | – | anti-OVA-specific IgE antibody production as compared to the OVA single administration group [2]: significantly increased |
| CCCCCCCCCCCCCCCC(=O)N[C@@H](CC(C)C)C(=O)OC [SZ79, N-hexadecanoyl-L-leucine methyl ester] | equivalent to or not less than that of Alum | a significant difference was not found | – | – | anti-OVA-specific IgG1 subclass antibody production compared with Alum ([1]; Example 8): equivalent to that of Alum |
| CCCCCCCCCCCCCCCCCCCCCC(=O)N[C@@H](CCCCN)C(=O)OC.O=C(O)C(F)(F)F [SZ73, N^2-docosanoyl-L-lysine methyl ester trifluoroacetic acid salt] | – | – | equivalent to or not less than that of Alum | significantly increased | – |
| CCCCCCCCCCCCCCCCCCCCCC(=O)N[C@H](C(=O)OC)C(C)C [SZ77, N-docosanoyl-L-valine methyl ester] | – | – | equivalent to or not less than that of Alum | significantly increased | – |
| CCCCCCCCCCCCCCCC(=O)N[C@@H](Cc1ccccc1)C(=O)OC [SZ80, N-hexadecanoyl-L-phenylalanine methyl ester] | equivalent to or not less than that of Alum | significantly increased | – | – | – |
